Data from patent US11034658B2, “Pyridinyl pyrazoles as modulators of RORγT” (Janssen Pharmaceutica NV, priority 2018, dated 2021).

Columns and labels:
[1] = target: human RORγt ligand binding domain (RORγt LBD) (Homo sapiens (Human), UniProt P51449); experiment: RORγt ThermoFluor assay
Description: ThermoFluor® is a fluorescence based assay that estimates ligand binding affinities by measuring the effect of a ligand on protein thermal stability (Pantoliano, M. W., Petrella, E. C., Kwasnoski, J. D., Lobanov, V. S., Myslik, J., Graf, E., Carver, T., Asel, E., Springer, B. A., Lane, P., and Salemme, F. R. (2001) High-density miniaturized thermal shift assays as a general strategy for drug discovery. J Biomol Screen 6, 429-40, and Matulis, D., Kranz, J. K., Salemme, F. R., and Todd, M. J. (2005) Thermodynamic stability of carbonic anhydrase: measurements of binding affinity and stoichiometry using ThermoFluor. Biochemistry 44, 5258-66). This approach is applicable to a wide variety of systems, and rigorous in theoretical interpretation through quantitation of equilibrium binding constants (KD).
The shift in the melting point described as a ΔTm is proportional to the concentration and affinity of the ligand. The compound potency may be compared as a rank order of either values at a single compound concentration or in terms of KD values, estimated from concentration response curves.
RORγt ThermoFluor® Assay Construct
For the RORγt construct used in the ThermoFluor® assay, numbering for the nucleotide sequences was based on the reference sequence for human RORγt, transcript variant 2, NCBI Accession: NM 001001523.1 (SEQ ID NO:1). Nucleotides 850-1635 (SEQ ID NO:2) coding for the wild type human RORγt ligand binding domain (RORγt LBD) were cloned into the pHIS1 vector, a modified pET E. coli expression vector (Accelagen, San Diego), containing an in-frame N-terminal His-tag and a TurboTEV protease cleavage site (ENLYFQG, SEQ ID NO:3) upstream of the cloned insert sequence. The amino acid sequence for the RORγt construct used in the Thermofluor® assay is shown as SEQ ID NO:4.
ThermoFluor® experiments were carried out using instruments owned by Janssen Research and Development, L.L.C. through its acquisition of 3-Dimensional Pharmaceuticals, Inc. 1,8-ANS (Invitrogen) was used as a fluorescent dye. Protein and compound solutions are dispensed into black 384-well polypropylene PCR microplates (Abgene) and overlayed with silicone oil (1 μL, Fluka, type DC 200) to prevent evaporation.
Bar-coded assay plates are robotically loaded onto a thermostatically controlled PCR-type thermal block and then heated at a typical ramp-rate of 1° C./min for all experiments. Fluorescence was measured by continuous illumination with UV light (Hamamatsu LC6) supplied via fiber optic and filtered through a band-pass filter (380-400 nm; >6 OD cutoff). Fluorescence emission of the entire 384-well plate was detected by measuring light intensity using a CCD camera (Sensys, Roper Scientific) filtered to detect 500±25 nm, resulting in simultaneous and independent readings of all 384 wells. Images were collected at each temperature, and the sum of the pixel intensity in a given area of the assay plate was recorded versus temperature. Reference wells contained RORγt without compounds, and the assay conditions were as follows:
Project compounds were arranged in a pre-dosed mother plate (Greiner Bio-one) wherein compounds are serially diluted in 100% DMSO by 1:2 from a high concentration of 10 mM over 12 columns within a series (column 12 is a reference well containing DMSO, no compound). The compounds were robotically dispensed directly into assay plates (1×=46 nL) using a Hummingbird capillary liquid handling instrument (Digilab). Following compound dispense, protein and dye in buffer was added to achieve the final assay volume of 3 μL, followed by 1 μL of silicone oil.
The binding affinity was estimated as described previously (Matulis, D., Kranz, J. K., Salemme, F. R., and Todd, M. J. (2005) Thermodynamic stability of carbonic anhydrase: measurements of binding affinity and stoichiometry using ThermoFluor®. Biochemistry 44, 5258-66) using the following thermodynamic parameters of protein unfolding:
Reference RORγt Tm: 47.8° C.

[2] = target: full-length human RORγt (GAL4-DBD-RORγt fusion) in HEK293T cells (Homo sapiens (Human), UniProt P51449); experiment: RORγt (full-length human) reporter assay, conditions A or B; type: cell-based; conditions: for IC50: HEK293T cells, read-out: RORγt (FL) Reporter Assay A or B, IC50; for inhibition at 3 µM: 3 μM compound concentration (footnote *)
Chain of full-length human RORγt (GAL4-DBD-RORγt fusion) in HEK293T cells (P51449 other isoform, or with tags, fused parts or gaps): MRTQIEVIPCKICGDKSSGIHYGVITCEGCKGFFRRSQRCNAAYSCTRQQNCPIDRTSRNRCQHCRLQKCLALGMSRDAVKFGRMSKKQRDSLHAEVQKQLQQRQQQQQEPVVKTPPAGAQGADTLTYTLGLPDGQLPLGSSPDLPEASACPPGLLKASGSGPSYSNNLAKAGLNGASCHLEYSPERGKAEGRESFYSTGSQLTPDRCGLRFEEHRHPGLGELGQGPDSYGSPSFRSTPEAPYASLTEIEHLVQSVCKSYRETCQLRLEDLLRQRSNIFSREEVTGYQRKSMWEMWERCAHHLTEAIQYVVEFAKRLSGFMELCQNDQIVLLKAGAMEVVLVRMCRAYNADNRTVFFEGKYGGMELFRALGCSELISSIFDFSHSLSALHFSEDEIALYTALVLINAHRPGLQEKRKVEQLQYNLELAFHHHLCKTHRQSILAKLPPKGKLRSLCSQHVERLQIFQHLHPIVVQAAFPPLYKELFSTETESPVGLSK
Method: RORγt (Full-Length Human) Reporter Assay:
(§1) HEK293T cells were plated at 35,000 per well in 96-well plate in medium of DMEM with 10% FBS. […] After overnight (16 to 20 hours) incubation, media were removed and cells were lysed with 50 μL Glo Lysis Buffer (Promega) for 10-15 minutes followed by 10 minute incubation with 50 μL Dual Glo reagent (Promega) at room temperature. Firefly luciferase luminescence was measured using a BMG Pherastar plate reader. To each well, 50 μL Stop and Glo reagent was added and incubated for 10 minutes at room temperature. Renilla luminescence was measured using a BMG Pherastar plate reader. To calculate the effect of compounds on RORγt activity, firefly values were normalized against values of DMSO only and values of reference compound at saturating concentration, then further normalized against Renilla signals. IC50s were generated by plotting final Renilla normalized data against compound concentration and percent inhibition was calculated against DMSO control.
as §1, with “at 8750 cells” for “at 35,000”, “in 384-well” for “in 96-well”, “with 20” for “with 50”, “well, 20” for “well, 50”

[3] = HEK-293T, read-out: RORγt (FL) Reporter Assay A or B, % inhibition

Chain of human RORγt ligand binding domain (RORγt LBD) (P51449 other isoform, or with tags, fused parts or gaps): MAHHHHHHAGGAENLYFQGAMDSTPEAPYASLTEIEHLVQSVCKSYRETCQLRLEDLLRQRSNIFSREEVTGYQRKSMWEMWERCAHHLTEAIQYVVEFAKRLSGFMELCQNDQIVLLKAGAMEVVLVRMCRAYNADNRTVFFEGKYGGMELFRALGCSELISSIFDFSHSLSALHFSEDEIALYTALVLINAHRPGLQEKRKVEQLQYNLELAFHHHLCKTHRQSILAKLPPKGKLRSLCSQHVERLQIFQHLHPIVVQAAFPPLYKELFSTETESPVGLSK

Row | SMILES | Kd [1] [nM] | IC50 [2] [nM] | inhibition at 3 µM [2, 3] [%] | inhibition at 2 µM ([2]; HEK-293T, 2 μM compound concentration, read-out: RORγt (FL) Reporter Assay A or B, % inhibition) [%]
1 | CCn1nc(C(=O)NC[C@]2(O)CC[C@@H](S(C)(=O)=O)CC2)c(Cl)c1-c1cnc(C[C@H](C)C(F)(F)F)cc1OC(F)F (single isomer, unassigned) [Example 15, 4-Chloro-5-(4-(difluoromethoxy)-6-((S*)-3,3,3-trifluoro-2-methylpropyl)pyridin-3-yl)-1-ethyl-N-(((1s,4R)-1-hydroxy-4-(methylsulfonyl)cyclohexyl)methyl)-1H-pyrazole-3-carboxamide] | 12 | 98 | 71 | –
2 | CCn1nc(C(=O)NC[C@]2(O)CC[C@@H](S(C)(=O)=O)CC2)c(Cl)c1-c1cnc(C[C@@H](C)C(F)(F)F)cc1OC(F)F (single isomer, unassigned) [Example 18, 4-Chloro-5-(4-(difluoromethoxy)-6-((R*)-3,3,3-trifluoro-2-methylpropyl)pyridin-3-yl)-1-ethyl-N-(((1s,4S)-1-hydroxy-4-(methylsulfonyl)cyclohexyl)methyl)-1H-pyrazole-3-carboxamide] | 18 | 140 | 100 | –
3 | CCn1nc(C(=O)NC[C@H]2CC[C@H](S(C)(=O)=O)CC2)c(C)c1-c1cnc(C[C@@H](C)C(F)(F)F)cc1OC(F)F (single isomer, unassigned) [Example 19, 5-(4-(Difluoromethoxy)-6-((R*)-3,3,3-trifluoro-2-methylpropyl)pyridin-3-yl)-1-ethyl-4-methyl-N-(((1r,4R)-4-(methylsulfonyl)cyclohexyl)methyl)-1H-pyrazole-3-carboxamide] | 17 | 40 | 105 | –
4 | CCn1nc(C(=O)NC[C@]2(O)CC[C@@H](S(C)(=O)=O)CC2)c(C)c1-c1cnc(C[C@@H](C)C(F)(F)F)cc1OC(F)F (single isomer, unassigned) [Example 20, 5-(4-(Difluoromethoxy)-6-((R*)-3,3,3-trifluoro-2-methylpropyl)pyridin-3-yl)-1-ethyl-N-(((1s,4S)-1-hydroxy-4-(methylsulfonyl)cyclohexyl)methyl)-4-methyl-1H-pyrazole-3-carboxamide] | 34 | 99 | 123 | –
5 | CCn1nc(C(=O)NC[C@H]2CC[C@H](S(C)(=O)=O)CC2)c(Cl)c1-c1cnc(C[C@@H](C)C(F)(F)F)cc1OC (single isomer, unassigned) [Example 61, 4-Chloro-1-ethyl-5-(4-methoxy-6-((R*)-3,3,3-trifluoro-2-methylpropyl)pyridin-3-yl)-N-((1r,4r)-4-(methylsulfonyl)cyclohexyl)methyl)-1H-pyrazole-3-carboxamide] | 16 | 110 | – | 87
6 | CCn1nc(C(=O)NC[C@@]2(O)CC[C@H](S(C)(=O)=O)C[C@@H]2O)c(Cl)c1-c1cnc(CC(C)(C)C(F)(F)F)cc1OC(F)F (stereo in doubt) [Example 4, 4-Chloro-5-(4-(difluoromethoxy)-6-(3,3,3-trifluoro-2,2-dimethylpropyl)pyridin-3-yl)-N-(((1S*,2S*,4S*)-1,2-dihydroxy-4-(methylsulfonyl)cyclohexyl)methyl)-1-ethyl-1H-pyrazole-3-carboxamide] | 9.1 | 55 | 100 | –

Now those with a lower Kd [1], led by results:

Row | Kd [1] [nM] | IC50 [2] [nM] | inhibition at 3 µM [2, 3] [%] | SMILES | inhibition at 2 µM ([2]; HEK-293T, 2 μM compound concentration, read-out: RORγt (FL) Reporter Assay A or B, % inhibition) [%]
7 | 3.2 | 35 | 97 | CCn1nc(C(=O)NC[C@@]2(O)CC[C@H](S(C)(=O)=O)C[C@@H]2O)c(C)c1-c1ccc(CC(C)(C)C(F)(F)F)nc1OC(F)F (relative stereo) [Example 51, 5-(2-(Difluoromethoxy)-6-(3,3,3-trifluoro-2,2-dimethylpropyl)pyridin-3-yl)-N-(((1S*,2S*,4S*)-1,2-dihydroxy-4-(methylsulfonyl)cyclohexyl)methyl)-1-ethyl-4-methyl-1H-pyrazole-3-carboxamide] | –
8 | 3.6 | 36 | 82 | CCn1nc(C(=O)NC[C@H]2CC[C@H](S(C)(=O)=O)CC2)c(Cl)c1-c1cnc(C[C@H](C)C(F)(F)F)cc1OC(F)F (single isomer, unassigned) [Example 14, 4-Chloro-5-(4-(difluoromethoxy)-6-((S*)-3,3,3-trifluoro-2-methylpropyl)pyridin-3-yl)-1-ethyl-N-(((1r,4S)-4-(methylsulfonyl)cyclohexyl)methyl)-1H-pyrazole-3-carboxamide] | –
9 | 5.2 | 16 | 101 | CCn1nc(C(=O)NC[C@H]2CC[C@H](S(C)(=O)=O)CC2)c(C)c1-c1cnc(C[C@H](C)C(F)(F)F)cc1OC(F)F (single isomer, unassigned) [Example 16, 5-(4-(Difluoromethoxy)-6-((S*)-3,3,3-trifluoro-2-methylpropyl)pyridin-3-yl)-1-ethyl-4-methyl-N-(((1r,4S)-4-(methylsulfonyl)cyclohexyl)methyl)-1H-pyrazole-3-carboxamide] | –
10 | 4.1 | 34 | 125 | CCn1nc(C(=O)NC[C@H]2CC[C@H](S(C)(=O)=O)CC2)c(Cl)c1-c1cnc(C[C@@H](C)C(F)(F)F)cc1OC(F)F (single isomer, unassigned) [Example 17, 4-Chloro-5-(4-(difluoromethoxy)-6-((R*)-3,3,3-trifluoro-2-methylpropyl)pyridin-3-yl)-1-ethyl-N-(((1r,4R)-4-(methylsulfonyl)cyclohexyl)methyl)-1H-pyrazole-3-carboxamide] | –
11 | 8.1 | 63 | 105 | CCn1nc(C(=O)NC[C@]2(O)CC[C@@H](S(C)(=O)=O)C[C@H]2O)c(Cl)c1-c1cnc(CC(C)(C)C(F)(F)F)cc1OC(F)F (stereo in doubt) [Example 3, 4-Chloro-5-(4-(difluoromethoxy)-6-(3,3,3-trifluoro-2,2-dimethylpropyl)pyridin-3-yl)-N-(((1R*,2R*,4R*)-1,2-dihydroxy-4-(methylsulfonyl)cyclohexyl)methyl)-1-ethyl-1H-pyrazole-3-carboxamide] | –
